Reference: ChEMBL document CHEMBL5131517 (ACS Med Chem Lett, 2022)

Columns and labels:
[1] = biological target: 5-hydroxytryptamine receptor 3A (Homo sapiens) (UniProt P46098); assay: Inhibition of 5HT3 receptor (unknown origin); conditions: concentration not given here
[2] = biological target: Alpha-2C adrenergic receptor (Homo sapiens, UniProt P18825); assay: Binding affinity to alpha2c (unknown origin) assessed as inhibition constant
[3] = biological target: T1, Beta-1 adrenergic receptor (Homo sapiens, UniProt P08588); assay: Binding affinity to beta1 receptor (unknown origin) assessed as inhibition constant
Target sequence in this assay (P08588 whole entry): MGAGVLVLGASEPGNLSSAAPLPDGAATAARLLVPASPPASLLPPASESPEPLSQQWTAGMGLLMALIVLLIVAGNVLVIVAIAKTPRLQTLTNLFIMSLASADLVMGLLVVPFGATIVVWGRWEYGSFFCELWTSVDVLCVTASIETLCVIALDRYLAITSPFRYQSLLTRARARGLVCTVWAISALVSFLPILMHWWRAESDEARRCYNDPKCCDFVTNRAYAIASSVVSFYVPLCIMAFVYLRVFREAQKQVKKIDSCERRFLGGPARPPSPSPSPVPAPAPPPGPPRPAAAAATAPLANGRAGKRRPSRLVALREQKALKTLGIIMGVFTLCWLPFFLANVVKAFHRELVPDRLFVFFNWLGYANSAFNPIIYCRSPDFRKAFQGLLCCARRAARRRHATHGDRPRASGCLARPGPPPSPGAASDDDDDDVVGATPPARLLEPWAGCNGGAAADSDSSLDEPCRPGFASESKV

[4] = biological target: D(4) dopamine receptor (Homo sapiens) (UniProt P21917); assay: Inhibition of D4 receptor (unknown origin); conditions: concentration not given here
Chain of D(4) dopamine receptor (Homo sapiens) (P21917 whole entry): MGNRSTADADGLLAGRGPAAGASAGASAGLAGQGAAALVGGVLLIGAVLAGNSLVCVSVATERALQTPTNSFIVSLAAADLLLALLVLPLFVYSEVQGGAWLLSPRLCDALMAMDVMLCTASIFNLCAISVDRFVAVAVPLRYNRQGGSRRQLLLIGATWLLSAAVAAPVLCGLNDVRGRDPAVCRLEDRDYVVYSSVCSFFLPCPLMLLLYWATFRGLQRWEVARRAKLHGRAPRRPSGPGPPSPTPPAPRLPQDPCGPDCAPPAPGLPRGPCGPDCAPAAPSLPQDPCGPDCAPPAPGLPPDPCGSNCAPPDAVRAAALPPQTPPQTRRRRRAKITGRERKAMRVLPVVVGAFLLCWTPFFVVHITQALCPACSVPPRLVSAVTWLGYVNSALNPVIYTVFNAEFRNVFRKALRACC

[5] = biological target: 5-hydroxytryptamine receptor 2B (Homo sapiens, UniProt P41595); assay: Binding affinity to 5HT2B receptor (unknown origin) assessed as inhibition constant
Chain of 5-hydroxytryptamine receptor 2B (P41595 whole entry): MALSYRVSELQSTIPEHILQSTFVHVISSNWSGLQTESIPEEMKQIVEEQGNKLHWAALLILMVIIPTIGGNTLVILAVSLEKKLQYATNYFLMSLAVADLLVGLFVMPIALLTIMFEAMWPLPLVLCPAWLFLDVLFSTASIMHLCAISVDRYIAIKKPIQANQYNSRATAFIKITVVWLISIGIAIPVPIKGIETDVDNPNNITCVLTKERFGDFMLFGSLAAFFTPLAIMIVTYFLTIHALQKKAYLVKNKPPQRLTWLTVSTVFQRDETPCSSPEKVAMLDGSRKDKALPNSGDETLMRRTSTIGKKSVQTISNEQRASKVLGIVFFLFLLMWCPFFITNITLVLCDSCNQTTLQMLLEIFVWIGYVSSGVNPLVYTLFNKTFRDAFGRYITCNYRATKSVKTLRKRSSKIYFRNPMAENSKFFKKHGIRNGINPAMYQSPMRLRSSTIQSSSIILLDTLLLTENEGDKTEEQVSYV

[6] = biological target: 5-hydroxytryptamine receptor 1E (Homo sapiens, UniProt P28566); assay: Inhibition of 5HT1E receptor (unknown origin); conditions: concentration not given here
Chain of 5-hydroxytryptamine receptor 1E (P28566 whole entry): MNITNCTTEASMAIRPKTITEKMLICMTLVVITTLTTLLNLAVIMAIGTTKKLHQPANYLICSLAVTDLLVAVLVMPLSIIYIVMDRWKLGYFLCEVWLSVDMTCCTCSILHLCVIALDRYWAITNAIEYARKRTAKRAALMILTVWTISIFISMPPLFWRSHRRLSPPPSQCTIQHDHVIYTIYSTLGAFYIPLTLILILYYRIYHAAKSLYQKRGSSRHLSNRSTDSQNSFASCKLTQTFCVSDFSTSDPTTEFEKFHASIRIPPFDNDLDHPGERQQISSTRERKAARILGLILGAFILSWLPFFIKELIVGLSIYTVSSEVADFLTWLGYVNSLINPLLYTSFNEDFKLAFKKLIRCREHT

[7] = biological target: 5-hydroxytryptamine receptor 1B (Homo sapiens, UniProt P28222); assay: Inhibition of 5HT1B receptor (unknown origin); conditions: concentration not given here
Chain of 5-hydroxytryptamine receptor 1B (P28222 whole entry): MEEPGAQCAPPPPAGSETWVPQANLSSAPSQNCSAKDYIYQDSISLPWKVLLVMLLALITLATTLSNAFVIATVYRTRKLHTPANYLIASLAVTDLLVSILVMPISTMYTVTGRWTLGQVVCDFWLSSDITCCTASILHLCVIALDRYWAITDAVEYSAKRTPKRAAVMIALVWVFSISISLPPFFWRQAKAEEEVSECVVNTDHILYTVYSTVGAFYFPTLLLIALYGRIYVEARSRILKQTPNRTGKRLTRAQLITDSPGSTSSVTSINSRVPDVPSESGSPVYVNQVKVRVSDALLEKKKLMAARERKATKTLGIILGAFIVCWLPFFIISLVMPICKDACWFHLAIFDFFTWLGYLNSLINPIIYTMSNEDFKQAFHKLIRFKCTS

[8] = biological target: Sigma intracellular receptor 2 (Homo sapiens, UniProt Q5BJF2); assay: Binding affinity to sigma 2 receptor (unknown origin) assessed as inhibition constant
Chain of Sigma intracellular receptor 2 (Q5BJF2 whole entry): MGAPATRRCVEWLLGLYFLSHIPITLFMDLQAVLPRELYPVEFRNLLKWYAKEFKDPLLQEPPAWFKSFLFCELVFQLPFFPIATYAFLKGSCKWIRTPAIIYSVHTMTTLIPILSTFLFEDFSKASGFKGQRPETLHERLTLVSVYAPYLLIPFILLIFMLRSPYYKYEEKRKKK

[9] = biological target: 5-hydroxytryptamine receptor 3A (Homo sapiens, UniProt P46098); assay: Binding affinity to 5HT3 receptor (unknown origin) assessed as inhibition constant
Chain of 5-hydroxytryptamine receptor 3A (P46098 whole entry): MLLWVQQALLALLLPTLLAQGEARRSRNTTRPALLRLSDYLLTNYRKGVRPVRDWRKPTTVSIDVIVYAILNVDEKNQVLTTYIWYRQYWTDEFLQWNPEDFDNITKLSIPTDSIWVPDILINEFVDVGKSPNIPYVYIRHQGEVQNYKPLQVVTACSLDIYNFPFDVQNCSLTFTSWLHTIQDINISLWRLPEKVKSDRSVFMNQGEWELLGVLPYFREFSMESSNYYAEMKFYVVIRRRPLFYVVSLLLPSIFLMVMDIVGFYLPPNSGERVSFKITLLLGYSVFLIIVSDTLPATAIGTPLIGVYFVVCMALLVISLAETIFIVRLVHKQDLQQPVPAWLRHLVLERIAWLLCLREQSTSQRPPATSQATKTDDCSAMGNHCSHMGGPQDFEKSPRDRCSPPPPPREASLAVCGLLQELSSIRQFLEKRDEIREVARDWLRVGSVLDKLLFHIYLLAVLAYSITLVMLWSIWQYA

[10] = biological target: T2, Alpha-2C adrenergic receptor (Homo sapiens) (UniProt P18825); assay: Inhibition of alpha2c (unknown origin); conditions: concentration not given here
T2 sequence (whole entry): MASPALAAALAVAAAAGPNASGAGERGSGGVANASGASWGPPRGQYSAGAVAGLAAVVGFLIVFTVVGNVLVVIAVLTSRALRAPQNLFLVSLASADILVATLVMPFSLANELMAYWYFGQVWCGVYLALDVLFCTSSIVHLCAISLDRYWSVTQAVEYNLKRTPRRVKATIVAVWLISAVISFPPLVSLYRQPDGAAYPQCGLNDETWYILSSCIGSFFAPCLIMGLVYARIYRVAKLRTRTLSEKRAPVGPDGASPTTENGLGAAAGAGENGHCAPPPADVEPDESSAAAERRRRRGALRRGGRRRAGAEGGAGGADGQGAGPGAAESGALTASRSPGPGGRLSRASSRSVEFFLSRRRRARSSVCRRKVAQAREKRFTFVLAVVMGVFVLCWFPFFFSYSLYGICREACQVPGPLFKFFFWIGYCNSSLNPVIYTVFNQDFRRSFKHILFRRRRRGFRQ

[11] = biological target: T1, Beta-1 adrenergic receptor; assay: Inhibition of beta1 receptor (unknown origin); conditions: concentration not given here
Target sequence in this assay (P08588 whole entry, looked up): as the sequence (P08588 whole entry) above

D(3) dopamine receptor = D(3) dopamine receptor (Homo sapiens, UniProt P35462); assay: Binding affinity to D3 receptor (unknown origin) assessed as inhibition constant
Chain of D(3) dopamine receptor (P35462 whole entry): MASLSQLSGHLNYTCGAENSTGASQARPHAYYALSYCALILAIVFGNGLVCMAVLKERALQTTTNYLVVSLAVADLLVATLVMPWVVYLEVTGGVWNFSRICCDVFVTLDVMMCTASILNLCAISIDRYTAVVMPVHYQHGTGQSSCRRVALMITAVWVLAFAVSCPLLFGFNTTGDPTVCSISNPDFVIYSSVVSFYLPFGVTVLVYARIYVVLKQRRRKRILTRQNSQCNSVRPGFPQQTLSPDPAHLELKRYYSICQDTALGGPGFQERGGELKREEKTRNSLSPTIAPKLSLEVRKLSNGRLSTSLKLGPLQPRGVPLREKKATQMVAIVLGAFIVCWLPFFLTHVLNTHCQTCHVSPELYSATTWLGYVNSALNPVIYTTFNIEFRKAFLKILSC

D(4) dopamine receptor = D(4) dopamine receptor (Homo sapiens, UniProt P21917); assay: Binding affinity to D4 receptor (unknown origin) assessed as inhibition constant
Chain of D(4) dopamine receptor (P21917 whole entry): as the sequence (P21917 whole entry) above

[12] = biological target: Sodium-dependent serotonin transporter (Homo sapiens, UniProt P31645); assay: Binding affinity to SERT receptor (unknown origin) assessed as inhibition constant
[13] = biological target: Sigma non-opioid intracellular receptor 1 (Homo sapiens, UniProt Q99720); assay: Inhibition of sigma 1 receptor (unknown origin); conditions: concentration not given here
Chain of Sigma non-opioid intracellular receptor 1 (Q99720 whole entry): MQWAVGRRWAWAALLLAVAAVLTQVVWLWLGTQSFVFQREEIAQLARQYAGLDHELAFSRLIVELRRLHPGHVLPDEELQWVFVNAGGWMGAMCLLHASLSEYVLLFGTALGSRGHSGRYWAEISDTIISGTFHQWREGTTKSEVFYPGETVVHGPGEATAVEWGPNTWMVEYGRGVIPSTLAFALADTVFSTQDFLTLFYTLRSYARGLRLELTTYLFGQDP

Chain of 5-hydroxytryptamine receptor 3A (Homo sapiens) (P46098 whole entry): as the sequence (P46098 whole entry) above

| inhibition [1] [%] | Ki [2] [nM] | Ki [3] [nM] | inhibition [4] [%] | Ki [5] [nM] | inhibition [6] [%] | inhibition [7] [%] | Ki [8] [nM] | Ki [9] [nM] | inhibition [10] [%] | inhibition [11] [%] | Ki (D(3) dopamine receptor) [nM] | Ki (D(4) dopamine receptor) [nM] | inhibition ([12]; filed as agonist, concentration not given here) [%] | Ki [12] [nM] | inhibition [13] [%] | Compound |
| --- | --- | --- | --- | --- | --- | --- | --- | --- | --- | --- | --- | --- | --- | --- | --- | --- |
| < 50 | 964 | 961 | < 50 | 55.7 | < 50 | < 50 | 2330 |  |  |  |  |  |  |  |  | COc1cc(OC)c(C2NCCc3c2[nH]c2ccc(F)cc32)cc1OC (configuration not stated) |
|  |  | 1470 | < 50 | 2.93 |  |  |  | 2780 | < 50 |  |  |  |  |  |  | COc1cc(OC)c(C2NCCc3c2[nH]c2ccc(Cl)cc32)cc1OC (configuration not stated) |
|  |  |  |  | 4.53 |  |  |  | 2790 | < 50 | < 50 | 1250 | 609 | < 50 |  |  | COc1ccc(C2NCCc3c2[nH]c2ccc(Cl)cc32)c(O)c1 (configuration not stated) |
| < 50 |  |  |  | 4.42 |  |  |  |  | < 50 | < 50 |  | 362 |  | 1840 | < 50 | COc1ccc(C2NCCc3c2[nH]c2ccc(F)cc32)c(O)c1 (configuration not stated) |
